Assay results from patent publication US20080004271A1, “Inhibitors of TNFalpha, PDE4 and B-RAF, compositions thereof and methods of use therewith” (priority 2006, published 2008).

Assays:
[1] = biological target: T1, V600E mutant B-RAF (Homo sapiens, UniProt P15056, V600E); test: V600E Mutant B-RAF 33P Assay; type: biochemical
T1 construct: purchased Upstate
Procedure: Substrate (HIS-MEK1 K97M) is prepared by Celgene Corp. as described above.
Test compound is diluted in 100% DMSO (600 μM). […] Substrate mixture is prepared as 7.5 μM HIS-MEK1 K97M in assay buffer. ATP mixture is prepared as 300 μM ATP, 75 mM MgCl2, 0.05 μCi/μl ^33P ATP in assay buffer.
In a 96 well assay plate (Falcon Polylpropylene well U-bottom), the following are added to each well: 2.5 μl of test compound solution (serial dilutions), 20 μl of substrate mixture and 17.5 μl of enzyme mixture. The plate is incubated for at least 15 minutes. 10 μl of ATP mixture is added and the plate is incubated at room temperature for about 60 minutes. 80 μl of 12.5% TCA is added to each well, and the plate is incubated for at least 20 minutes. The contents of the plate is transferred to a glass fiber filter plate (Millipore) using a Packard Harvester (washing 10× with 1×PBS). 50 μl of Scintillation-20 fluid is added to each well. The plate is read using a Packard TopCount.

[2] = test system: pMEK1/2 in A375 cells; test: A375 pMEK1/2 Meso Scale Assay; type: cell-based; conditions: Homo sapiens, A-375, 2 h; A375 pMEK1/2, about two hours incubation
Procedure: On the afternoon of Day 1, cells are plated in a 96-well flat bottom cell culture plate at about 50,000 cells/well in a volume of 100 μl. On the morning of Day 2, serial dilutions of test compound(s) are added to the plate. The plate is incubated for about two hours at 37° C., […]. The plate is blocked about five minutes before the compound incubation step is completed by adding 150 μl/well of MSD (Meso Scale Discovery) blocking solution-A (prepared with 20 ml 1× Tris wash buffer (25 ml of 10× Tris buffer+225 ml deionized water) and 600 mg MSD blocker A) and incubating with vigorous shaking at room temperature for one hour. The plate is washed 4× with 1× Tris wash buffer.
Cells are harvested and lysates prepared by removing medium, washing 1× with ice-cold PBS (calcium and magnesium free), adding 50 μl/well Complete Tris buffer and incubating with shaking at 4° C. for one hour. Lysate samples (25 μl) are added to an MSD Multi-Spot plate and incubated with vigorous shaking at room temperature for two hours. The plate is washed 1× with Tris wash buffer.
25 μl/well of […] detection antibody (Anti-pMEK1/2 antibody; SULFO-TAG labeled, light sensitive) in 3 ml of cold antibody dilution buffer (1 ml blocking solution-A, 1.82 ml 1× Tris wash buffer, 150 μl 2% MSD blocker D-M and 30 μl 10% MSD blocker D-R) is added and the plate is incubated with vigorous shaking at room temperature in the dark for one hour. The plate is washed 1× with Tris wash buffer.
150 μl/well of 1× MSD Read buffer T (with surfactant) is added to the plate and the plate is read using a MSD Sector instrument.

[3] = test system: A375 cells; test: Alamar Blue Viability Assay; type: cell-based; conditions: Homo sapiens, A-375, 72 h, 3 days
Procedure: A375 cells (ATCC # CRL-1619; Passage 4˜15; doubling time is roughly 18 hours) are used. Culture medium is DMEM (high glucose, with L-glutamine)+10% FBS+Pen/Strep. Cells are passed every three days at 1:20.
200 μl of medium only is added into all wells along the edges of a 96-well flat bottom plate and 180 μl of cell suspension (containing 1,000 cells) per well is added into the plate with a Low Evaporation Lid (Costar Cat # 3595). The cells are cultured overnight. Compounds and controls are diluted according to standard compound dilution protocol described below. From 30 mM stock solution, 10 mM, 3 mM, 1 mM, and 0.3 mM solutions in 100% DMSO are prepared using the following serial dilution protocol:
The 30, 10, 3, 1 and 0.3 mM solutions are diluted 1:50 (DMSO:medium) by adding 4 μl of each to 196 μl of culture medium. This yields 600 μM, 200 μM, 60 μM, 20 μM, and 6 μM secondary stock solutions. 4 μl of DMSO are added to 196 μl medium for the DMSO control as well. 20 μl of compound dilutions, including the DMSO control locations (Row G, Columns 2-10 are DMSO control wells), are added in triplicate to the cells in the 96-well plate using a repeat pipettor (see plate layout below). This yields final concentrations of 60 μM, 20 μM, 6 μM, 2 μM, and 0.6 μM containing 0.2% DMSO in each well. The plate is gently tapped to evenly distribute compound within the well. The plate is incubated at 5% CO2 at 37° C. for 3 days.
20 μl of Alamar Blue (Biosource #DAL-1100) is added to each well. The plate is incubated in 5% CO2 incubator for 4 hours. Fluorescence is measured with excitation wavelength at 530 nm and emission wavelength at 590 nm using a Victor 2 multilabel plate reader (Perkin Elmer). Data is saved with plate format as a Text file and entered into ActivityBase (Cell-based SAR; Prolif-Alamar; MTT 5 plates unfixed fit) to calculate the percent of DMSO values for each compound set of triplicate wells and IC50 curves are plotted.

T1 sequence (P15056 whole entry V600E): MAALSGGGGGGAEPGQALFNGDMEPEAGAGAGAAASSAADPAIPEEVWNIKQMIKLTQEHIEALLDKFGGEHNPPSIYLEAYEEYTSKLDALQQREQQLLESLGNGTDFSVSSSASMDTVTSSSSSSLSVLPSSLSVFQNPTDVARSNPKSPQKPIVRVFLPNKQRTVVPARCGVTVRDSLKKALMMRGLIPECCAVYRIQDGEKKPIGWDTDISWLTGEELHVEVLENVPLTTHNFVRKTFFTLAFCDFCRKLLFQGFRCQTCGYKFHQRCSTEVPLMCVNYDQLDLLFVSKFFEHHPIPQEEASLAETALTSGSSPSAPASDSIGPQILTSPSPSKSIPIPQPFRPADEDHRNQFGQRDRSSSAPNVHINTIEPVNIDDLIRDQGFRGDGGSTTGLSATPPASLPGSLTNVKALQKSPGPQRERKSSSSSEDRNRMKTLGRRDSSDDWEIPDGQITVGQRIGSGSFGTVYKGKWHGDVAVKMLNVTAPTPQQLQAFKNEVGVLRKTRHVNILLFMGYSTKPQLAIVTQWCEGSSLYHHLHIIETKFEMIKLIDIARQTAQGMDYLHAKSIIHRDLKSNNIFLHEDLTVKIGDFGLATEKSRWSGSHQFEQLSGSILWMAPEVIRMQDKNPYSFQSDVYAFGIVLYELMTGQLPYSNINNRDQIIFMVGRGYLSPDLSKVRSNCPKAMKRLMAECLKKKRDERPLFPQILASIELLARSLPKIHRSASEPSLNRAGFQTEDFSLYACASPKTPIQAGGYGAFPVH

IC50 [1]	IC50 [2]	IC50 [3]	Compound
0.1 to 10 µM	0.1 to 10 µM	10 to 20 µM	NC(=O)c1sc2nc(NC3CC3)nc(-c3ccc(Cl)cc3)c2c1N [Example 5]
	10 to 20 µM	30 to 60 µM	C[C@H](CO)Cc1nc(-c2ccc(Cl)c(Cl)c2)c2c(N)c(C(N)=O)sc2n1 [Example 163]
	10 to 20 µM	20 to 30 µM	C[C@@H](CO)Cc1nc(-c2ccc(Cl)c(Cl)c2)c2c(N)c(C(N)=O)sc2n1 [Example 164]
0.1 to 10 µM	0.1 to 10 µM	0.1 to 10 µM	NC(=O)c1sc2nc(N)nc(-c3cccc(O)c3)c2c1N [Example 185]
0.1 to 10 µM	0.1 to 10 µM	10 to 20 µM	Cc1ccc(-c2nc(NC3CC3)nc3sc(C(N)=O)c(N)c23)cc1C [Example 188]
	0.1 to 10 µM	10 to 20 µM	C[C@@H](CO)Nc1nc(-c2ccc(Cl)c(Cl)c2)c2c(N)c(C(N)=O)sc2n1 [Example 200]
	0.1 to 10 µM	10 to 20 µM	C[C@H](CO)Nc1nc(-c2ccc(Cl)c(Cl)c2)c2c(N)c(C(N)=O)sc2n1 [Example 201]
0.1 to 10 µM	20 to 30 µM	10 to 20 µM	NC(=O)CCNc1nc(-c2ccc(Cl)c(Cl)c2)c2c(N)c(C(N)=O)sc2n1 [Example 202]
	0.1 to 10 µM	10 to 20 µM	CC(C)(CO)Nc1nc(-c2ccc(Cl)c(Cl)c2)c2c(N)c(C(N)=O)sc2n1 [Example 203]
0.1 to 10 µM	10 to 20 µM	20 to 30 µM	NC(=O)c1sc2nc(NC(CO)CO)nc(-c3ccc(Cl)c(Cl)c3)c2c1N [Example 204]
0.1 to 10 µM	20 to 30 µM	20 to 30 µM	C[C@H](O)CNc1nc(-c2ccc(Cl)c(Cl)c2)c2c(N)c(C(N)=O)sc2n1 [Example 205]
0.1 to 10 µM	20 to 30 µM	20 to 30 µM	C[C@@H](O)CNc1nc(-c2ccc(Cl)c(Cl)c2)c2c(N)c(C(N)=O)sc2n1 [Example 206]
0.1 to 10 µM	10 to 20 µM	10 to 20 µM	CC[C@@H](CO)Nc1nc(-c2ccc(Cl)c(Cl)c2)c2c(N)c(C(N)=O)sc2n1 [Example 207]
0.1 to 10 µM	0.1 to 10 µM	10 to 20 µM	CC[C@H](CO)Nc1nc(-c2ccc(Cl)c(Cl)c2)c2c(N)c(C(N)=O)sc2n1 [Example 208]
0.1 to 10 µM	0.1 to 10 µM	0.1 to 10 µM	C[C@@H](O)[C@@H](C)Oc1nc(-c2ccc(Cl)c(Cl)c2)c2c(N)c(C(N)=O)sc2n1 [Example 214]
0.1 to 10 µM	10 to 20 µM	0.1 to 10 µM	CCCNc1nc(-c2ccc(Cl)c(Cl)c2)c2c(N)c(C(N)=O)sc2n1 [Example 217]
0.1 to 10 µM	30 to 60 µM	10 to 20 µM	CNCCNc1nc(-c2ccc(Cl)c(Cl)c2)c2c(N)c(C(N)=O)sc2n1 [Example 218]
	0.1 to 10 µM	0.1 to 10 µM	NC(=O)c1sc2nc(NC3CC3)nc(-c3cccc(O)c3F)c2c1N [Example 232]
	10 to 20 µM	10 to 20 µM	NC(=O)c1sc2nc(NC3CC3)nc(-c3cccc(NC(=O)Nc4ccccc4)c3)c2c1N [Example 248]
	0.1 to 10 µM	0.1 to 10 µM	NC(=O)c1sc2nc(NC3CC3)nc(-c3cccc(NC(=O)Nc4ccc(C(F)(F)F)cc4)c3)c2c1N [Example 250]
	0.1 to 10 µM	0.1 to 10 µM	Cc1ccc(NC(=O)Nc2cccc(-c3nc(NC4CC4)nc4sc(C(N)=O)c(N)c34)c2)cc1 [Example 251]
	0.1 to 10 µM	0.1 to 10 µM	CC(C)(CO)Nc1nc(-c2cccc(NC(=O)Nc3ccc(C(F)(F)F)cc3)c2)c2c(N)c(C(N)=O)sc2n1 [Example 257]
	0.1 to 10 µM	0.1 to 10 µM	NC(=O)c1sc2ncnc(-c3cccc(NC(=O)Nc4ccc(C(F)(F)F)cc4)c3)c2c1N [Example 262]
	> 60 µM	> 60 µM	NC(=O)c1sc2ncnc(-c3ccc(Cl)c(Cl)c3)c2c1N [Example 269]

Further lines, the molecule ahead of its results:

Compound	IC50 [1]	IC50 [2]	IC50 [3]
NC(=O)c1sc2nc(NC3CC3)nc(-c3ccc4c(c3)OCC4)c2c1N [Example 162]	0.1 to 10 µM	0.1 to 10 µM	10 to 20 µM
COc1cncc(-c2nc(NC3CC3)nc3sc(C(N)=O)c(N)c23)c1 [Example 165]		0.1 to 10 µM	0.1 to 10 µM
NC(=O)c1sc2nc(NC3CC3)nc(-c3ccc(Cl)nc3)c2c1N [Example 169]	0.1 to 10 µM	0.1 to 10 µM	20 to 30 µM
NC(=O)c1sc2nc(NC3CC3)nc(-c3cncc(Cl)c3)c2c1N [Example 171]	0.1 to 10 µM	0.1 to 10 µM	20 to 30 µM
CCOc1cncc(-c2nc(NC(C)(C)CO)nc3sc(C(N)=O)c(N)c23)c1 [Example 172]	30 to 60 µM	> 60 µM	> 60 µM
COc1cncc(-c2nc(NC(C)(C)CO)nc3sc(C(N)=O)c(N)c23)c1 [Example 173]		0.1 to 10 µM	0.1 to 10 µM
CC[C@H](CO)Nc1nc(-c2cncc(OC)c2)c2c(N)c(C(N)=O)sc2n1 [Example 174]	0.1 to 10 µM	0.1 to 10 µM	0.1 to 10 µM
CC[C@@H](CO)Nc1nc(-c2cncc(OC)c2)c2c(N)c(C(N)=O)sc2n1 [Example 175]	0.1 to 10 µM	0.1 to 10 µM	10 to 20 µM
COc1cncc(-c2nc(N[C@H](C)CO)nc3sc(C(N)=O)c(N)c23)c1 [Example 176]		0.1 to 10 µM	0.1 to 10 µM
NC(=O)c1sc2nc(C3CC3)nc(-c3ccc(Cl)c(Cl)c3)c2c1N [Example 189]	0.1 to 10 µM	20 to 30 µM	0.1 to 10 µM
CC(C)(CO)Nc1nc(-c2cc(O)cc(Cl)c2)c2c(N)c(C(N)=O)sc2n1 [Example 190]		0.1 to 10 µM	0.1 to 10 µM
CC[C@@H](CO)Nc1nc(-c2cc(O)cc(Cl)c2)c2c(N)c(C(N)=O)sc2n1 [Example 191]	0.1 to 10 µM	0.1 to 10 µM	0.1 to 10 µM
CC[C@H](CO)Nc1nc(-c2cc(O)cc(Cl)c2)c2c(N)c(C(N)=O)sc2n1 [Example 192]	0.1 to 10 µM	0.1 to 10 µM	0.1 to 10 µM
NC(=O)c1sc2nc(NC3(CO)CC3)nc(-c3ccc(Cl)c(Cl)c3)c2c1N [Example 210]	0.1 to 10 µM	0.1 to 10 µM	0.1 to 10 µM
C[C@H](CO)Oc1nc(-c2ccc(Cl)c(Cl)c2)c2c(N)c(C(N)=O)sc2n1 [Example 212]		0.1 to 10 µM	10 to 20 µM
COCCNc1nc(-c2ccc(Cl)c(Cl)c2)c2c(N)c(C(N)=O)sc2n1 [Example 219]	0.1 to 10 µM	> 60 µM	> 60 µM
CC(C)c1nc(-c2ccc(Cl)c(Cl)c2)c2c(N)c(C(N)=O)sc2n1 [Example 238]	0.1 to 10 µM	10 to 20 µM	
